# Source: paper PMC9101373, “Design of DNA Intercalators Based on 4-Carboranyl-1,8-Naphthalimides: Investigation of Their DNA-Binding Ability and Anticancer Activity” (International Journal of Molecular Sciences, 2022)
# Assays:
# [1] = tested on: HepG2 cells; assay: Cell cycle analysis by flow cytometry (PI staining); type: cell-based, human; conditions: HepG2, 24 h at IC50; for cells in G2M phase: control 11.5%
# Description: To reveal the mechanism underlying the inhibitory effect of the obtained compounds on cellular viability, we examined cell cycle regulation. For this purpose, HepG2 cells were exposed to compounds 54–61 (54 (5.5 µM), 55 (3.4 µM), 56 (12 µM), 57 (3.1 µM), 58 (3.9 µM), 59 (5.4 µM), 60 (31 µM), and 61 (4.8 µM)). The chosen concentration of each of these compounds corresponded to their total IC50 value.
# After exposure, HepG2 cells were examined by flow cytometry, and their DNA content was measured by PI staining. […] Compounds 54–59 caused arrest in the G1/G0 phase since we observed a higher number of cells in that phase as compared to control (Figure 4 and Figure S297, ESI). […] Compounds 60 and 61 arrested cell cycle in the G2M phase, where the accumulation of cells was observed (>18% vs. 11.5% in control cells) (Figure 4 and Figure S297, ESI). In comparison, mitonafide and pinafide induced cell cycle arrest at the S and G2M phases, respectively. […] In contrast, 1,8-naphthalimide products with carborane modification at position 3 caused cell cycle arrest at the G2M phase, similar to pinafide and compounds 60 and 61 from this study.
# HepG2 (5 × 10^5) cells were seeded onto 6-well cell culture plates and incubated for 24 h in a fully supplemented EMEM medium (Corning®) with addition of the analyzed compounds at a concentration corresponding to their total IC50 values. DNA content was determined by flow cytometry with PI (Sigma-Aldrich, Steinheim, Germany) staining. After incubation, the cells were trypsinized and washed twice with PBS (1 mL). In the next step, the cells were fixed with an ice-cold 80% ethanol. After 1 h incubation at 4 °C, the cells were stored at −20 °C for further analysis. After double wash with PBS, the fixed cells were stained with PI (50 μg/mL) with RNAse A (100 μg/mL) for 30 min at 37 °C in the dark. PI fluorescence was measured by FACSCalibur (Becton Dickinson), and data were analyzed by FlowJo software. […]
# [2] = tested on: HepG2 cells; assay: Oxidative stress (ROS) measurement by flow cytometry, CellROX Deep Red; type: cell-based, human; conditions: HepG2, 24 h at total IC50
# Description: To determine the effect of the compounds on HepG2 cells, we analyzed oxidative status after 24 h of treatment as the pathological level of ROS affects the proper functioning of proteins, lipids, and nucleic acids. The compounds were added to the growth medium at a concentration that corresponds to the total IC50 value. After incubation, the cells were stained with CellROX Deep Red Reagent, which is an oxidative stress indicator. This is a non-fluorescent dye that emits red fluorescent signal upon oxidation by ROS. […] We observed an increase in fluorescence intensity of approximately 22–32% as compared to that of control cells (Figure 5 and Figure S298, ESI).
# HepG2 cells (3.85 × 10^5) were seeded onto 6-well plates, cultured with EMEM media at 37 °C and 5% CO2 saturation, and incubated until 60–70% confluence. Subsequently, the cells were treated for 24 h with the tested compounds at a concentration corresponding to their total IC50 values. […] The level of intracellular ROS generation was analyzed by staining with CellROX™ Deep Red Reagent (ex/em: ~644/665 nm) according to the manufacturer’s protocol (Thermo Fisher Scientific, Waltham, MA, USA), in which fluorescence was triggered in the presence of ROS. […] The cells were analyzed after incubation with the dye, with excitation at […] by the FACSCalibur flow cytometer (Becton Dickinson), and data were analyzed by FlowJo software. […]
Substance,G0/G1 cell fraction ([1]; control 60.1%),cells in G2M phase [1],increase in CellROX fluorescence intensity (ROS) as compared to control [2]
"N-[2-(Dimethylamino)ethyl]-4-[(6-(2-(1,2-dicarba-closo-dodecaborane-1-yl)-ethylamino)hexyl)amino]-1,8-naphthalimide [Compound 58]",70.4%,,
"N-[2-N-Pyrrolidinyl)ethyl]-4-[(6-(2-(1,7-dicarba-closo-dodecaborane-1-yl)-ethylamino)hexyl)amino]-1,8-naphthalimide [Compound 61]",,> 18%,65%
"N-[2-N-Pyrrolidinyl)ethyl]-4-[(6-(2-(1,2-dicarba-closo-dodecaborane-1-yl)-ethylamino)hexyl)amino]-1,8-naphthalimide [Compound 60]",,> 18%,64%
